# Results: US20260306459A1, “INHIBITORS OF NSUN1- AND NSUN2-MEDIATED ACTIVE STRUCTURES” (THE UNIVERSITY OF CHICAGO, priority 2023, published 2026)
# Entries after “also recorded” stand apart in the source; their conditions may differ.
# What was measured:
# SC cells = experiment: MTT growth inhibition in venetoclax-resistant monocytic leukemia cell line SC; format: cell-based, human
# From the text: FIGS. 8A-8B display a schematic of an 5-ethynyl uridine click chemistry (EC)-coupled flow cytometry (EC-FCM) assay (FIG. 8A), while FIG. 8B depicts the results of an EC-FCM assay showing distinct drug-specific signatures/patterns of nascent RNA synthesis inhibition in the venetoclax sensitive leukemia cell line (K1). The MTT assay measures cell viability and proliferation as well as cytotoxicity of compounds by assessing cellular metabolic activity. The associated measurement can be described as cell viability, cell killing, and/or growth inhibition.
# (§1) FIGS. 11A-11D display scatter plot representations of screening results for AI-designed NSUN1-targeting compound libraries in a venetcoclax-resistant human myeloid leukemia cell line (SC), lung cancer cell line (H82), and venetoclax resistant human […], and a schematic representation of categorization of the results. A human myeloid leukemia cell Line (SC), a lung cancer cell line (H82 or K562) were both incubated at drug concentration 10 μM/μL overnight. MTT assays were performed after 24 hours, and changes were calculated as the percentage of mean absorbance (n=3) versus mean absorbance of drug-free control (n=3). Negative outliers indicated in red ovals. FIG. 11A depicts the results of an NSUN1-targeting drug library, 74 drugs, comparing growth/inhibition in H-82 (Y axis) and SC (X axis) cell lines. FIG. 11B depicts the results of an NSUN2-targeting drug library, 102 drugs, comparing growth/inhibition in H-82 (Y axis) and SC (X axis) cell lines. FIG. 11C depicts the results of an NSUN1-targeting drug library, 74 drugs, comparing growth/inhibition in K562 (Y axis) and SC (X axis) cell lines. FIG. 11D is a schematic representation showing categorization of the results from screens performed as described in FIG. 11, and validation experiments as described in FIG. 12.
# (§2) FIGS. 12A-12J display bar graphs displaying the results of validation experiments for small molecule inhibitors of NSUN1/2-ACS interactions as identified herein. Drug validation of select SC, H82, and/or K562 inhibiting compounds in mouse acute myeloid leukemia cell Line (C1498), SC cells, H82 cells, and/or K562 cells. NSUN1-17 and/or venetoclax acted as controls. Inhibition of cell vitality was identified as dose-dependent for certain small molecules, not merely cytotoxic. In brief, stock with concentration 0.4×10^6 test (e.g., SC, H82, K562, or C1498, as labelled) cells/mL, and 10 μM/μL drug was serially diluted into drug-free cell stock to reach concentrations of 1 μM/μL and […] and split into 100 μL volumes in a 96-well plate. MTT assays performed after 24 hour incubation. Percentages calculated as a difference in mean absorbance of each drug triplicate and mean absorbance in drug-free cell triplicate. Red bars represent standard errors. The concentration of drug represented by each column is from left to right as written in the figure keys. FIGS. 12A-12E provide results from independent repeats for different groupings of small molecules tested against C1498 cells. FIGS. 12F-12G provide results from independent repeats for different groupings of small molecules tested against H82 cells. FIGS. […] provide results from independent repeats for different groupings of small molecules tested against SC cells. FIG. 12J provide results from an assay against K562 cells.
# The inventors then designed a protocol for functional screening of NSUN1/2-targeting supercomputing/AI-derived compound libraries as schematically presented in FIGS. 5A-5G. Briefly, the library compounds were obtained from various chemical companies/vendors and dissolved in DMSO, and then applied to 96-well plates that contained leukemia and/or other cancer cells that were resistant to venetoclax. […]
# [1] = test system: leukemia and lung cancer cell lines; experiment: Functional (MTT) screening of NSUN1/2-targeting libraries in leukemia and lung cancer cell lines; format: cell-based, human; settings: multiple leukemia lines and/or lung cancer cell lines
# Method: as §1, §2
# The inventors then designed a protocol for functional screening of NSUN1/2-targeting supercomputing/AI-derived compound libraries as schematically presented in FIGS. 5A-5G. Briefly, the library compounds were obtained from various chemical companies/vendors and dissolved in DMSO, and then applied to 96-well plates that contained leukemia and/or other cancer cells that were resistant to venetoclax. Both the routine colorimetric assay (MTT assay) and the newly developed NSUN1/2-targeting fluorescence quenching and release (FQR) assay were performed to select bioactive compounds for further quantitative study to confirm that they targetNSUN1/2 and their associated ACS. As described below, the compound libraries screened through cancer cell proliferation and/or NSUN1/2 localization to the ACS successfully identified numerous promising compounds that can inhibit the leukemia cell growth and appear to target the NSUN1-mediated ACS (see Table 2). This success has proven the feasibility and efficacy of the described supercomputing/AI design and functional screening of the NSUN1/2-targeting drug libraries. In some aspects, screening is conducted using drug-resistant cell lines. […]
# [2] = molecular target: T1, NSUN1-eRNAPII interaction (Homo sapiens, UniProt P46087); experiment: PL-RCA-FCM, NSUN1-eRNAPII interaction; format: cell-based
# T1 construct: RNAPII
# From the text: (§3) FIGS. 5A-5G display a pipeline of computational design and functional screening of small-molecule compound libraries as well as exemplary characterization and validation of identified positive hit compounds and their targets. FIGS. 5A-5D display an exemplary experimental procedure, beginning with characterization of NSUN1 and/or NSUN2 putative binding modules for interaction with ACS components (FIGS. 5A-5B), a graphic displaying the design of a small molecule library and testing of the putative small molecule NSUN1/2-ACS inhibitors in cell lines (FIG. 5C), characterization of the NSUN1/2-ACS inhibitors interactions with the ACS machinery (FIG. 5D).
# (§4) Black=negative control, blue=positive control, no drug=red.
# (§5) The PL-RCA-CM/imaging technique utilized in the inventors previous work (Cheng, J. X. et al., Nature Communications 2018) was suitable to visualize and semi-quantify the NSUN1/2-mediated ACS in cells. […] To overcome this bottleneck, as described herein, the inventors developed NSUN1/2-targeting fluorescence quenching and release (FQR) plate assay (FIG. 6A) and PL-RCA flow cytometry (PL-RCA-FCM) technology (FIG. 6B) for screening of NSUN1/2-targeting drug libraries and quantitatively measuring NSUN1/2-mediated ACS with and without drugs in a lineage-specific and high-throughput manner. […]
# NSUN1-c-MYC interaction = NSUN1-c-MYC interaction (Homo sapiens, UniProt P46087); experiment: PL-RCA-FCM, NSUN1-c-MYC interaction; format: cell-based
# From the text: as §3, §4, §5
# [3] = molecular target: NSUN1-RNA:m5C interaction (Homo sapiens, UniProt P46087); experiment: PL-RCA-FCM, NSUN1-RNA:m5C interaction; format: cell-based
# From the text: as §3
# The PL-RCA-CM/imaging technique utilized in the inventors previous work (Cheng, J. X. et al., Nature Communications 2018) was suitable to visualize and semi-quantify the NSUN1/2-mediated ACS in cells. However, the previous technique had the disadvantage of having a low sensitivity and low throughput. To overcome this bottleneck, as described herein, the inventors developed NSUN1/2-targeting fluorescence quenching and release (FQR) plate assay (FIG. 6A) and PL-RCA flow cytometry (PL-RCA-FCM) technology (FIG. 6B) for screening of NSUN1/2-targeting drug libraries and quantitatively measuring NSUN1/2-mediated ACS with and without drugs in a lineage-specific and high-throughput manner. […]
# [4] = molecular target: T2, NSUN2-RNA polymerase II (RNAPII) interaction (Homo sapiens, UniProt Q08J23); experiment: PL-RCA-FCM, NSUN2-RNAPII interaction; format: cell-based
# T2 construct: RNAPII CTD2-S2P
# From the text: as §4
# The PL-RCA-CM/imaging technique utilized in the inventors previous work (Cheng, J. X. et al., Nature Communications 2018) was suitable to visualize and semi-quantify the NSUN1/2-mediated ACS in cells. However, the previous technique had the disadvantage of having a low sensitivity and low throughput. To overcome this bottleneck, as described herein, the inventors developed NSUN1/2-targeting fluorescence quenching and release (FQR) plate assay (FIG. 6A) and PL-RCA flow cytometry (PL-RCA-FCM) technology (FIG. 6B) for screening of NSUN1/2-targeting drug libraries and quantitatively measuring NSUN1/2-mediated ACS with and without drugs in a lineage-specific and high-throughput manner. The new PL-RCA-FCM detected very strong PL-RCA signals (>2 logs) of the NSUN2-mediated interactions with m5C, RNAPII CTD2-S2P and BRD4, particularly in the venetoclax-resistant leukemia cells (SC) (FIG. 6C), in comparison to the venetoclax-sensitive K1 cells (FIG. 6D).
# [5] = test system: NSUN1 and NSUN2 binding modules; experiment: Synergy experiments; settings: besides the NSUN1 A-460 binding module
# From the text: Without being limited by theory, this may potentially be why NSUN1-17 is effective in multiple different cancer types.
# Chain of NSUN1-c-MYC interaction (P46087 whole entry): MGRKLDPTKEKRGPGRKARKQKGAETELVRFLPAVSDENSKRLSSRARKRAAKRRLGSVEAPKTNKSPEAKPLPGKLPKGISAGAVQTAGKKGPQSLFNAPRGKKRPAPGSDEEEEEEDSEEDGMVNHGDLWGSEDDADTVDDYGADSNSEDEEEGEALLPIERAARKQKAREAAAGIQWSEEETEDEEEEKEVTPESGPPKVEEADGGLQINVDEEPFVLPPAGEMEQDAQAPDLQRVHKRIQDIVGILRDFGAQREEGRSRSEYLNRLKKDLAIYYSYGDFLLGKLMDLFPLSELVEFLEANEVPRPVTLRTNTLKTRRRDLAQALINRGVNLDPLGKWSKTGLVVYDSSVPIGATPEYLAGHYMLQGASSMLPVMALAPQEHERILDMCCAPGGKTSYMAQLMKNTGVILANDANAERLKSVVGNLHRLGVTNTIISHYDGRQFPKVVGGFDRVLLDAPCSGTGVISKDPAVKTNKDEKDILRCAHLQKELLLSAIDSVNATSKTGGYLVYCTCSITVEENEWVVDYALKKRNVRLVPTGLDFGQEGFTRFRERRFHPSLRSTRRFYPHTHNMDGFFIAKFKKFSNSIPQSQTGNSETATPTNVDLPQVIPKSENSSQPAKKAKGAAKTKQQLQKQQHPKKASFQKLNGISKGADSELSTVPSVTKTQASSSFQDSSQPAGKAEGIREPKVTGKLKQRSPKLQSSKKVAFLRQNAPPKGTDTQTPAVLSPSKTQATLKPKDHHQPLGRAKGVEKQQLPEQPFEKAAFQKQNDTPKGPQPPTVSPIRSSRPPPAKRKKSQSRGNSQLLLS
# T1 sequence (P46087 whole entry): as above
# Chain of NSUN1-RNA:m5C interaction (P46087 whole entry): as above
# T2 sequence (Q08J23 whole entry): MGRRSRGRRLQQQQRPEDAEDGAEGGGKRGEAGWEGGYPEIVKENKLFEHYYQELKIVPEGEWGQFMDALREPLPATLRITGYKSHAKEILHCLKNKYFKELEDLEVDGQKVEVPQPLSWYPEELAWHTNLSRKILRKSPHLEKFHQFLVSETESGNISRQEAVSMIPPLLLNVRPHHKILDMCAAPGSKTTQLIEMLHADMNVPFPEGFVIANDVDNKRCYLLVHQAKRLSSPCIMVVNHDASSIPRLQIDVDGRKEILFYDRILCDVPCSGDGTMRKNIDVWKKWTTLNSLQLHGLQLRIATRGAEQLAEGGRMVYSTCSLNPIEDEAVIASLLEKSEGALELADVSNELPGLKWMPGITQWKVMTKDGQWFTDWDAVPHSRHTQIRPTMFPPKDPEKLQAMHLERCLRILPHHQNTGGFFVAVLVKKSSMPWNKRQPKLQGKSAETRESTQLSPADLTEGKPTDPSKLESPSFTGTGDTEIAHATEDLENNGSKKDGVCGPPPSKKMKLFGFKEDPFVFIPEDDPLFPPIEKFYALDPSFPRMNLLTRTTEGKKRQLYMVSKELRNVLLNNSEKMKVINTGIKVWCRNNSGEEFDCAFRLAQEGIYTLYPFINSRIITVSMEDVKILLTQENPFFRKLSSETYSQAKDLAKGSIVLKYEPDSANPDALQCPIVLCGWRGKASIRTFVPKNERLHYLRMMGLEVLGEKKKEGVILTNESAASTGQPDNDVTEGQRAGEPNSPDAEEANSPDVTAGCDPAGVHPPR
structure (smiles),measurement,setting,value
Cc1[nH]nc2ccc(-c3cncc(OC[C@@H](N)Cc4c[nH]c5ccccc45)c3)cc12 [NSUN1-17],Inhibition of growth of venetoclax-resistant leukemia (SC) cells,SC cells,inhibition of the growth of venetoclax-resistant SC cells; also recorded: inhibit drug (venetoclax)-resistant leukemia cells
same,Efficacy of tumor cell growth inhibition,[1],high-efficacy of tumor cell growth inhibition
same,Effect on NSUN1 interaction with eRNAPII/RNAPII,[2],inhibited the interaction; also recorded: can only disrupt the NSUN1-mediated interaction; also recorded: effectively disrupted
same,Effect on NSUN1 interaction with c-MYC,NSUN1-c-MYC interaction,inhibited the interaction; also recorded: can only disrupt the NSUN1-mediated interaction; also recorded: effectively disrupted
same,Effect on NSUN1 interaction with RNA:m5C,[3],but not the interaction between NSUN1 and RNA m5C; also recorded: little effects
same,Effect on NSUN2-mediated interaction with RNA polymerase II,[4],not the NSUN-2 mediated interaction
same,"Binding modules targeted, from synergy experiments",[5],likely to target multiple binding modules in both NSUN1 and NSUN2
